From patent US8513462B2, “Pesticides and uses thereof” (Dow AgroSciences LLC, priority 2007, dated 2013)

Columns and labels:
[1] = test system: cotton aphid (Aphis gossypii); assay: Insecticidal test for cotton aphid in foliar spray assay; type: in vivo; settings: 72 h, foliar spray on squash, Corrected % Control (Abbott) after 3 days, read-out: Rating against cotton aphid on squash (foliar spray)
Protocol: (§1) The compounds identified in the foregoing examples were tested against cotton aphid using procedures described hereinafter. Insecticidal Test for Cotton Aphid (Aphis gossypii) in Foliar Spray Assay Squash seedlings with fully expanded cotyledon leaves were trimmed to one cotyledon per plant and infested with cotton aphid (wingless adults and nymphs) 1 day prior to chemical application. Each plant was examined before chemical application to ensure uniform infestation (ca. 30-70 aphids per plant). Compounds (2 mg) were dissolved in 2 ml of acetone:methanol (1:1) solvent, forming stock solutions of 1000 ppm. The stock solutions were diluted 5× with 0.025% Tween 20 in H2O to obtain a solution at 200 ppm. A hand-held Devilbiss aspirator type sprayer was used to apply the spray solutions until runoff to both sides of the squash cotyledon leaves. Four plants (4 replications) were used for each compound. Reference plants (solvent check) were sprayed with the diluent only. Treated plants were held in a holding room for 3 days at approximately 23° C. and 40% RH before the number of live aphids on each plant was recorded. Insecticidal activity was measured by Corrected % Control using Abbott's correction formula and presented in Table 1-Activity: Corrected % Control=100*(X−Y)/X • where X=No. of live aphids on solvent check plants • Y=No. of live aphids on treated plants Results are shown in Table 7. Insecticidal Test for Green Peach Aphid (Myzus persicae) in Foliar Spray Assay

[2] = test system: green peach aphid (Myzus persicae); assay: Insecticidal test for green peach aphid in foliar spray assay; type: in vivo; settings: 72 h, foliar spray on cabbage, Corrected % Control (Abbott) after three days, read-out: Rating against green peach aphid on cabbage (foliar spray)
Protocol: as §1, with “Squash” for “The compounds identified in the foregoing examples were tested against cotton aphid using procedures described hereinafter. Insecticidal Test for Cotton Aphid (Aphis gossypii) in Foliar Spray Assay Squash”, “Assay Cabbage seedlings grown in 3-inch pots, with 2-3 small (3-5 cm) true leaves, were used as test substrate. The seedlings were infested with 20-50 green peach aphids (wingless adult and nymph) 1-2 days prior to chemical application. Four seedlings were used for each treatment. Compounds (2 mg) were dissolved in 2 ml of acetone:methanol (1:1) solvent, forming stock solutions of 1000 ppm. The stock solutions were diluted 5× with 0.025% Tween 20 in H2O to obtain a solution at 200 ppm. A hand-held Devilbiss aspirator sprayer was used for spraying a solution to both sides of cabbage leaves until runoff. Reference plants (solvent check) were sprayed with the diluent only. Treated plants were held in a holding room for three days at approximately 23° C. and 40% RH prior to grading. Evaluation was conducted by counting the number of live aphids per plant under a microscope. Insecticidal activity was measured by using Abbott's correction formula: Corrected % Control=100*(X−Y)/X • where X=No. of live aphids on solvent check plants • Y=No. of live aphids on treated plants” for “Assay”

SMILES	pest or weed control at 200 ppm [1] [%]	pest or weed control at 200 ppm [2] [%]
CC(c1ccc(C(F)(F)F)nc1)S(C)(=O)=Nc1ccc(F)cn1 (stereo not drawn) [Compound 1, 3-[1-ethyl(N-(2-(5-fluoro)pyridine)-sulfoximinyl)(methyl)]-6-trifluoromethylpyridine]	80 to 100	80 to 100
CC(c1ccc(C(F)(F)F)nc1)S(C)(=O)=Nc1ccc(Cl)cn1 (stereo not drawn) [Compound 2, 3-[1-ethyl(N-(2-(5-chloro)pyridine)-sulfoximinyl)(methyl)]-6-trifluoromethylpyridine]	80 to 100	80 to 100
CC(c1ccc(C(F)(F)F)nc1)S(C)(=O)=Nc1ccccn1 (stereo not drawn) [Compound 4, 3-[1-ethyl(N-(2-pyridine)-sulfoximinyl)(methyl)]-6-trifluoromethylpyridine]	80 to 100	< 80
CC(c1ccc(C(F)(F)F)nc1)S(C)(=O)=Nc1ncccn1 (stereo not drawn) [Compound 5]	< 80	
CC(c1ccc(C(F)(F)F)nc1)S(C)(=O)=Nc1nccs1 (stereo not drawn) [Compound 6]	80 to 100	80 to 100
CC(c1ccc(C(F)(F)F)nc1)S(C)(=O)=Nc1ccc([N+](=O)[O-])cn1 (stereo not drawn) [Compound 7]	80 to 100	80 to 100
CC(c1ccc(C(F)(F)F)nc1)S(C)(=O)=Nc1ccncc1 (stereo not drawn) [Compound 8]	< 80	< 80
CC(c1ccc(C(F)(F)F)nc1)S(C)(=O)=Nc1ccc(C(F)(F)F)cn1 (stereo not drawn) [Compound 12]	< 80	
CC(c1ccc(C(F)(F)F)nc1)S(C)(=O)=Nc1nc(Br)cs1 (stereo not drawn) [Compound 13, 5-{1-[methyl(4-bromo-1,3-thiazol-2-yl)sulfonimidoyl]ethyl}-2-(trifluoromethyl)pyridine]	80 to 100	< 80
CC(c1ccc(C(F)(F)F)nc1)S(C)(=O)=Nc1cccc[n+]1[O-] (stereo not drawn) [Compound 24, 3-[1-ethyl(N-(1-oxy-pyridin-2-e)-sulfoximinyl)(methyl)]-6-trifluoromethylpyridine]	80 to 100	< 80
